Assay results: EPA's ToxRefDB 2

Legend:
rat [1] = conditions: Sub-acute repeat dose toxicity, Oral, Gavage/Intubation, dose end: 4 day, group: systemic
rat [2] = conditions: Sub-acute repeat dose toxicity, Oral, Gavage/Intubation, dose end: 4 day, group: systemic; remark: listed apart in the source
rat [3] = conditions: Sub-acute repeat dose toxicity, Oral, Gavage/Intubation, dose end: 4 day, group: systemic; remark: listed apart in the source
rat [4] = conditions: Sub-acute repeat dose toxicity, Oral, Gavage/Intubation, dose end: 4 day, group: systemic; remark: listed apart in the source
rat [5] = conditions: Multigenerational reproductive toxicity study, sprague dawley, Oral, Gavage/Intubation, dose end: 1 generation
rat [6] = conditions: Subchronic oral toxicity in rodents, fischer, Feed, dose end: 13 week, group: systemic
rat [7] = conditions: Carcinogenicity; fischer; Oral; Feed; dose end: 24 month; group: systemic; systemic / clinical chemistry / [other] / [other] + systemic / in life observation / body weight / body weight + systemic / in life …
dog [8] = conditions: Subchronic oral toxicity in nonrodent, beagle, Feed, dose end: 6 month, group: systemic, systemic / clinical chemistry / albumin-globulin ratio / albumin-globulin ratio + systemic / organ weight / liver / absolute + systemic / …
mouse [9] = conditions: Prenatal developmental toxicity study; other; Oral; Gavage/Intubation; dose end: 18 GD; group: maternal; reproductive / reproductive performance / aborted / aborted + reproductive / reproductive performance / estrous cycle / corpora lutea
rat [10] = conditions: Sub-acute repeat dose toxicity, fischer, Oral, Feed, dose end: 28 day, group: systemic
mouse [11] = conditions: Carcinogenicity, cd1, Oral, Feed, dose end: 78 week, group: systemic
dog [12] = conditions: Chronic toxicity; beagle; Oral; Gavage/Intubation; dose end: 12 month; group: systemic; systemic / clinical chemistry / alkaline phosphatase (alp/alk) / alkaline phosphatase (alp/alk) + systemic / clinical chemistry / urea …
rat [13] = conditions: Combined chronic toxicity/carcinogenicity, sprague dawley, Oral, Feed, dose end: 24 month
rat [14] = conditions: Combined chronic toxicity/carcinogenicity, sprague dawley, Oral, Feed, dose end: 24 month, group: systemic
rat [15] = conditions: Multigenerational reproductive toxicity study, sprague dawley, Oral, Feed, dose end: 3 generation
rat [16] = conditions: Multigenerational reproductive toxicity study, sprague dawley, Oral, Feed, dose end: 2 generation
rat [17] = conditions: Multigenerational reproductive toxicity study, WIST Han Ibm: WIST ISPF, Oral, Feed, dose end: 2 generation
rat [18] = conditions: Prenatal developmental toxicity study, wistar, Oral, Gavage/Intubation, dose end: 16 GD
dog [19] = conditions: Chronic toxicity, beagle, Oral, Feed, dose end: 52 week, group: systemic
rabbit = conditions: Prenatal developmental toxicity study, himalayan, Oral, Gavage/Intubation, dose end: 18 GD, group: maternal
[20] = systemic / in life observation / clinical signs / abnormal respiratory sounds + systemic / in life observation / clinical signs / fur (…
[21] = systemic / in life observation / body weight / body weight + systemic / in life observation / clinical signs / abnormal respiratory sounds…
[22] = systemic / organ weight / liver / absolute
[23] = systemic / organ weight / liver / absolute + systemic / in life observation / clinical signs / salivation + systemic / pathology microscopic…
[24] = systemic / in life observation / body weight / body weight + systemic / organ weight / liver / absolute + systemic / in life observation / …
[25] = group: offspring, developmental / developmental landmark / vaginal opening / vaginal opening + systemic / clinical chemistry / cholesterol / cholesterol + …
[26] = group: offspring, systemic / organ weight / spleen / absolute
[27] = group: parental, systemic / organ weight / adrenal gland / absolute + systemic / organ weight / liver / absolute + systemic / organ weight / liver / relative…
[28] = group: parental, systemic / pathology gross / sperm measure / sperm morphology
[29] = group: reproductive, reproductive / reproductive performance / mating / mating + reproductive / reproductive performance / estrous cycle / length
[30] = systemic / in life observation / body weight / body weight gain + systemic / pathology gross / stomach / thickened + systemic / pathology …
[31] = systemic / in life observation / food consumption / food consumption + systemic / pathology microscopic / stomach / hyperkeratosis + …
[32] = systemic / pathology microscopic / stomach / papilloma + systemic / in life observation / body weight / body weight + systemic / in life …
[33] = systemic / in life observation / body weight / body weight gain + systemic / pathology microscopic / ovary / cyst + systemic / in life …
[34] = group: cholinesterase, cholinesterase / cholinesterase / cholinesterase / brain cholinesterase (che) + cholinesterase / cholinesterase / cholinesterase / …
[35] = group: systemic, systemic / pathology microscopic / nerve / cholesterol cleft(s) + systemic / pathology microscopic / nerve / mineralization + systemic / …
[36] = group: offspring, systemic / in life observation / body weight / offspring (pup) weight
[37] = group: offspring, systemic / in life observation / body weight / offspring (pup) weight + developmental / offspring survival late / viability index / …
[38] = group: parental, systemic / in life observation / body weight / body weight + systemic / in life observation / body weight / body weight gain
[39] = group: reproductive, reproductive / offspring survival early / live fetuses / live fetuses
[40] = group: cholinesterase, cholinesterase / cholinesterase / cholinesterase / erythrocyte cholinesterase (che)
[41] = group: offspring, systemic / in life observation / body weight / offspring (pup) weight + developmental / offspring survival late / lactation index / …
[42] = group: parental, systemic / in life observation / body weight / body weight + systemic / in life observation / body weight / body weight gain + systemic / in…
[43] = group: reproductive, reproductive / offspring survival early / litter size / litter size
[44] = group: offspring, systemic / in life observation / body weight / offspring (pup) weight + systemic / in life observation / body weight / offspring (pup) …
[45] = group: parental, systemic / in life observation / body weight / body weight + systemic / in life observation / body weight / body weight gain + systemic / …
[46] = group: developmental, systemic / in life observation / body weight / fetal weight + systemic / in life observation / body weight / offspring (pup) weight gain
[47] = group: developmental, systemic / in life observation / body weight / fetal weight + systemic / in life observation / body weight / offspring (pup) weight gain + …
[48] = group: maternal, systemic / in life observation / body weight / body weight gain + systemic / in life observation / food consumption / food efficiency
[49] = group: maternal, systemic / in life observation / body weight / body weight gain + systemic / in life observation / food consumption / food efficiency + …
[50] = systemic / clinical chemistry / alkaline phosphatase (alp/alk) / alkaline phosphatase (alp/alk) + systemic / organ weight / liver / absolute…
[51] = reproductive / reproductive performance / aborted / aborted + systemic / in life observation / body weight / body weight gain + systemic / …

CNCc1ccc(S(C)(=O)=O)cc1Oc1ccc2c(c1)CCCC2
LOAEL (rat [1]; [20]): > 500 mg/kg/day
NEL (rat [1]; [20]): 30 mg/kg/day
NOAEL (rat [1]; [20]): ≥ 500 mg/kg/day
LEL (rat [1]; systemic / in life observation / clinical signs / salivation): 100 mg/kg/day
LOAEL (rat [2]; [21]): > 500 mg/kg/day
NOAEL (rat [2]; [21]): ≥ 500 mg/kg/day
LEL (rat [2]; [22]): 30 mg/kg/day
NEL (rat [2]; [22]): < 30 mg/kg/day
LEL (rat [3]; [22]): 30 mg/kg/day
NEL (rat [3]; [22]): < 30 mg/kg/day
LOAEL (rat [3]; [23]): > 100 mg/kg/day
NOAEL (rat [3]; [23]): ≥ 100 mg/kg/day
LOAEL (rat [4]; [24]): > 500 mg/kg/day
NOAEL (rat [4]; [24]): ≥ 500 mg/kg/day
LEL (rat [4]; [22]): 30 mg/kg/day
NEL (rat [4]; [22]): < 30 mg/kg/day

COc1ccc(O)c(C(C)(C)C)c1 [Butylated hydroxyanisole]
LOAEL (rat [5]; [25]): > 500 mg/kg/day
NOAEL (rat [5]; [25]): ≥ 500 mg/kg/day
LEL (rat [5]; [26]): 10 mg/kg/day
NEL (rat [5]; [26]): < 10 mg/kg/day
LOAEL (rat [5]; [27]): > 500 mg/kg/day
NOAEL (rat [5]; [27]): ≥ 500 mg/kg/day
LEL (rat [5]; [28]): 10 mg/kg/day
NEL (rat [5]; [28]): < 10 mg/kg/day
NEL (rat [5]; group: reproductive, reproductive / reproductive performance / mating / mating): 100 mg/kg/day
LEL (rat [5]; [29]): 500 mg/kg/day
LOAEL (rat [5]; [29]): > 500 mg/kg/day
NOAEL (rat [5]; [29]): ≥ 500 mg/kg/day
LEL (rat [6]; systemic / clinical chemistry / [other] / [other]): 250 mg/kg/day
NEL (rat [6]; systemic / clinical chemistry / [other] / [other] + systemic / in life observation / body weight / body weight gain + systemic / in life …): 125 mg/kg/day
LOAEL (rat [6]; [30]): > 1000 mg/kg/day
NOAEL (rat [6]; [30]): ≥ 1000 mg/kg/day
LEL (rat [7]): 1000 mg/kg/day
LOAEL (rat [7]): > 1000 mg/kg/day
NEL (rat [7]): < 1000 mg/kg/day
NOAEL (rat [7]): ≥ 1000 mg/kg/day
LEL (dog [8]): 54 mg/kg/day
LOAEL (dog [8]): > 219 mg/kg/day
NEL (dog [8]): < 54 mg/kg/day
NOAEL (dog [8]): ≥ 219 mg/kg/day
LEL (mouse [9]): 500 mg/kg/day
LOAEL (mouse [9]): > 500 mg/kg/day
NEL (mouse [9]): < 500 mg/kg/day
NOAEL (mouse [9]): ≥ 500 mg/kg/day
LEL (rat [10]; [31]): 350 mg/kg/day
NEL (rat [10]; [31]): < 350 mg/kg/day
LOAEL (rat [10]; [32]): > 1400 mg/kg/day
NOAEL (rat [10]; [32]): ≥ 1400 mg/kg/day

CCSC(=O)N(CC)C1CCCCC1 [Cycloate]
LOAEL (mouse [11]; systemic / in life observation / body weight / body weight gain + systemic / pathology microscopic / ovary / cyst): 167 mg/kg/day
LEL (mouse [11]; [33]): 167 mg/kg/day
NEL (mouse [11]; [33]): 49 mg/kg/day
NOAEL (mouse [11]; [33]): 49 mg/kg/day
LEL (dog [12]): 50 mg/kg/day
LOAEL (dog [12]): 50 mg/kg/day
NEL (dog [12]): 0.5 mg/kg/day
NOAEL (dog [12]): 0.5 mg/kg/day
LEL (rat [13]; [34]): 8 mg/kg/day
LOAEL (rat [13]; [34]): 8 mg/kg/day
NEL (rat [13]; [34]): < 8 mg/kg/day
NOAEL (rat [13]; [34]): < 8 mg/kg/day
LEL (rat [13]; [35]): 8 mg/kg/day
LOAEL (rat [13]; [35]): 8 mg/kg/day
NEL (rat [13]; [35]): < 8 mg/kg/day
NOAEL (rat [13]; [35]): < 8 mg/kg/day
LEL (rat [14]; systemic / organ weight / heart / absolute): 2.4 mg/kg/day
NEL (rat [14]; systemic / organ weight / heart / absolute + systemic / pathology microscopic / skeletal muscle / atrophy + systemic / pathology microscopic…): 0.4 mg/kg/day
LOAEL (rat [14]; systemic / pathology microscopic / spinal cord / atrophy + systemic / pathology microscopic / spinal cord / degeneration): 3.1 mg/kg/day
NOAEL (rat [14]; systemic / pathology microscopic / spinal cord / atrophy + systemic / pathology microscopic / spinal cord / degeneration + systemic / in …): 0.5 mg/kg/day
LEL (rat [15]; [36]): 24 mg/kg/day
LOAEL (rat [15]; [36]): 24 mg/kg/day
NEL (rat [15]; [37]): 8 mg/kg/day
NOAEL (rat [15]; [37]): 8 mg/kg/day
LEL (rat [15]; [38]): 24 mg/kg/day
LOAEL (rat [15]; [38]): 24 mg/kg/day
NEL (rat [15]; [38]): 8 mg/kg/day
NOAEL (rat [15]; [38]): 8 mg/kg/day
LEL (rat [15]; [39]): 72 mg/kg/day
LOAEL (rat [15]; [39]): > 72 mg/kg/day
NEL (rat [15]; [39]): 24 mg/kg/day
NOAEL (rat [15]; [39]): ≥ 72 mg/kg/day
LEL (rat [16]; [40]): 50 mg/kg/day
LOAEL (rat [16]; [40]): > 50 mg/kg/day
NEL (rat [16]; [40]): 20 mg/kg/day
NOAEL (rat [16]; [40]): ≥ 50 mg/kg/day
LEL (rat [16]; [36]): 20 mg/kg/day
LOAEL (rat [16]; [36]): 20 mg/kg/day
NEL (rat [16]; [41]): 2.5 mg/kg/day
NOAEL (rat [16]; [41]): 2.5 mg/kg/day
LEL (rat [16]; [42]): 20 mg/kg/day
LOAEL (rat [16]; [42]): 20 mg/kg/day
NEL (rat [16]; [42]): 2.5 mg/kg/day
NOAEL (rat [16]; [42]): 2.5 mg/kg/day
LEL (rat [16]; [43]): 50 mg/kg/day
LOAEL (rat [16]; [43]): 50 mg/kg/day
NEL (rat [16]; [43]): 20 mg/kg/day
NOAEL (rat [16]; [43]): 20 mg/kg/day

CCOC(=O)C1=NN(c2ccc(Cl)cc2Cl)C(C)(C(=O)OCC)C1 (stereo not given) [Mefenpyr-diethyl]
LEL (rat [17]; [44]): 250 mg/kg/day
LOAEL (rat [17]; [44]): 250 mg/kg/day
NEL (rat [17]; [44]): 50 mg/kg/day
NOAEL (rat [17]; [44]): 50 mg/kg/day
LEL (rat [17]; [45]): 250 mg/kg/day
LOAEL (rat [17]; [45]): 250 mg/kg/day
NEL (rat [17]; [45]): 50 mg/kg/day
NOAEL (rat [17]; [45]): 50 mg/kg/day
LOAEL (rat [18]; [46]): 1000 mg/kg/day
NOAEL (rat [18]; [46]): < 1000 mg/kg/day
LEL (rat [18]; [47]): 1000 mg/kg/day
NEL (rat [18]; [47]): < 1000 mg/kg/day
LOAEL (rat [18]; [48]): 1000 mg/kg/day
NOAEL (rat [18]; [48]): < 1000 mg/kg/day
LEL (rat [18]; [49]): 1000 mg/kg/day
NEL (rat [18]; [49]): < 1000 mg/kg/day
LOAEL (dog [19]; [50]): 260 mg/kg/day
NOAEL (dog [19]; [50]): 51.4 mg/kg/day
LEL (dog [19]; systemic / organ weight / liver / relative to body weight): 57.6 mg/kg/day
NEL (dog [19]; systemic / organ weight / liver / relative to body weight + systemic / clinical chemistry / alkaline phosphatase (alp/alk) / alkaline …): 11.1 mg/kg/day
LOAEL (rabbit; reproductive / reproductive performance / aborted / aborted + reproductive / offspring survival early / live fetuses / live fetuses): 250 mg/kg/day
LEL (rabbit; reproductive / reproductive performance / aborted / aborted + reproductive / offspring survival early / live fetuses / live fetuses + …): 250 mg/kg/day
NEL (rabbit; [51]): 100 mg/kg/day
NOAEL (rabbit; [51]): 100 mg/kg/day
